Article PMC8428568, “Discovery of re-purposed drugs that slow SARS-CoV-2 replication in human cells” (PLoS Pathogens, 2021)
Counter-ions that a name gives are not always drawn. Like-named read-outs stand apart in the source and are kept apart here.

Assays:
recombinant NLuc = assay type: biochemical
[1] = tested on: SARS-CoV-2-ΔOrf7a-NLuc virus; assay: microbe, parasite or virus in culture; assay type: cell-based; conditions: for IC50: read-out: HUH7 IC50
[2] = tested on: SARS-CoV-2-ΔOrf7a-NLuc virus; assay: Post-infection treatment: Vero cells infected 24 hrs with SARS-CoV-2-ΔOrf7a-NLuc, then compound for 48 hrs, bioluminescence; assay type: cell-based; conditions: for Post-infection at IC50: change in replication relative to DMSO, cells infected 24 hrs, then treated 48 hrs
[3] = tested on: SARS-CoV-2-ΔOrf7a-NLuc virus; assay: microbe, parasite or virus in culture; assay type: cell-based; conditions: for activity at 10 µM: Severe acute respiratory syndrome coronavirus 2, Vero, 72 h, read-out: Mean relative luminescence (n=4); for IC50: Severe acute respiratory syndrome coronavirus 2
[4] = recombinant NLuc activity relative to DMSO
[5] = recombinant NLuc, first read column
[6] = recombinant NLuc, fourth read column
[7] = recombinant NLuc, third read column
[8] = HUH7 screen, […], relative luminescence
[9] = Severe acute respiratory syndrome coronavirus 2, Huh-7
[10] = […], 1 = untreated, 0 = total inhibition
[11] = Vero screen, […], relative luminescence
[12] = Vero cells, 10 μM, 1 = DMSO-treated infected cells

| Compound | Relative Recombinant NLUC (recombinant NLuc; [4]) | Reads Counts per second (read 1) (recombinant NLuc; [5]) | Reads Counts per second (read 4) (recombinant NLuc; [6]) | Reads Counts per second (read 3) (recombinant NLuc; [7]) | PrestoBlue relative viability (HUH7 cells; HUH7 screen) | Mean relative luminescence (n=4) [1, 8] | IC50 [1, 9] | Post-infection at IC50 [2] | % activity in Vero 100PFU screen [3] | activity at 10 µM [3, 10] | IC50 ([3]; Vero cells) | Mean relative luminescence (n=4) [3, 11] | PrestoBlue relative viability (Vero cells; [12]) | PrestoBlue relative viability (Vero cells; Vero screen) | further results |
| --- | --- | --- | --- | --- | --- | --- | --- | --- | --- | --- | --- | --- | --- | --- | --- |
| CCN1CCN(Cc2ccc(Nc3ncc(F)c(-c4cc(F)c5nc(C)n(C(C)C)c5c4)n3)nc2)CC1 [LY2835219] | 0.9189 | 345999 Counts per second | 348685 Counts per second | 345910 Counts per second | 0.6043 | 0.07242 | 0.2 µM | -40% | 3.32% | 2.68% | 1 µM | 0.02684 | 0.5512 | 0.5512 | – |
| CCN(CC)Cc1cc(Nc2ccnc3cc(Cl)ccc23)ccc1O [Amodiaquine, Amodiaquine dihydrochloride dihydrate] | 0.9146 | 351271 Counts per second | 339282 Counts per second | 344113 Counts per second | 0.7783 | 0.01258 | 1 µM | -25% | 12% | 10.1% | 5 µM | 0.1007 | 0.6404 | 0.6404 | Reads Counts per second (read 2) (recombinant NLuc; recombinant NLuc): 347518 Counts per second |
| Cc1[nH]c2ccccc2c1CCNCc1ccc(/C=C/C(=O)NO)cc1 [Panobinostat] | 0.8963 | 330994 Counts per second | 341728 Counts per second | 343634 Counts per second | 0.753 | 0.05897 | < 0.2 µM | -25% | 3.68% | 1.87% | < 0.2 µM | 0.01867 | 0.6021 | 0.6021 | effect on virus replication [1]: completely blocked replication of SARS-CoV-2 at all doses tested; effect on replication in cells already infected ([2]; Vero cells infected 24 hrs then treated 48 hrs): a more modest effect on replication |
| COc1nc2ccc(Br)cc2cc1[C@@H](c1ccccc1)[C@@](O)(CCN(C)C)c1cccc2ccccc12 [Bedaquiline] | 0.9285 | 348601 Counts per second | 351646 Counts per second | 347079 Counts per second | – | – | 5 µM | -30% | 3.54% | 1.02% | 10 µM | – | 0.8784 | – | Reads Counts per second (read 2) (recombinant NLuc; recombinant NLuc): 355872 Counts per second |
| C=C1CC[C@H](O)C/C1=C/C=C1\CCC[C@]2(C)[C@@H]([C@H](C)CCCC(C)C)CC[C@@H]12 [Vitamin D3] | 0.9682 | 370629 Counts per second | 364312 Counts per second | 360711 Counts per second | 0.6418 | 0.02567 | 3 µM | -30% | 12% | 9.68% | 10 µM | 0.09678 | 1.049 | 1.049 | suppression of SARS-CoV-2 replication [1]: ≥ 85%; reduction of virus replication ([3]; Vero cells, 100PFU screen, 10 μM): ≥ 85% |
| O=C1C(O)=C([C@H]2CC[C@H](c3ccc(Cl)cc3)CC2)C(=O)c2ccccc21 [Atovaquone] | 0.5902 | 224278 Counts per second | 216287 Counts per second | 224646 Counts per second | 1.15 | 0.05824 | 7.5 µM | -25% | 4% | 0.959% | 3 µM | 0.009591 | 1.55 | 1.55 | Reads Counts per second (read 2) (recombinant NLuc; recombinant NLuc): 226697 Counts per second |
| COC(=O)C1=C(C)NC(C)=C(C(=O)OCCN2CCN(C(c3ccccc3)c3ccccc3)CC2)C1c1cccc([N+](=O)[O-])c1 (stereo not drawn) [Manidipine] | 0.6615 | 249924 Counts per second | 251205 Counts per second | 250350 Counts per second | 0.5396 | 0.1 | 2 µM | -50% | 12% | 10.9% | 7.5 µM | 0.1086 | 1.036 | 1.036 | – |
| COC(=O)C1=C(C)NC(C)=C(C(=O)OCCN2CCN(C(c3ccccc3)c3ccccc3)CC2)C1c1cccc([N+](=O)[O-])c1.Cl.Cl (stereo not drawn) [Manidipine 2HCl] | 0.6382 | 242466 Counts per second | 239469 Counts per second | 242968 Counts per second | 0.5726 | 0.04447 | – | -50% | 12% | – | – | 0.1096 | 0.813 | 0.813 | IC50 [1]: 2.5 µM; Mean relative luminescence (n=4) [3, 10]: 0.1096 |
| CCOC(=O)C1=C(C)NC(C)=C(C(=O)OCC)C1c1ccccc1/C=C/C(=O)OC(C)(C)C [Lacidipine] | 0.1601 | 61246 Counts per second | 59492 Counts per second | 60310 Counts per second | 0.9247 | 0.02662 | – | – | 1.49% | 0.0439% | – | 0.0004392 | 0.86 | 0.86 | – |
| Clc1ccc(C(Cn2ccnc2)OCc2ccsc2Cl)c(Cl)c1 (stereo not drawn) [Tioconazole] | – | – | – | – | – | – | – | – | 10% | – | – | – | – | – | Reads Counts per second (read 1) (recombinant NLuc): 349867 Counts per second; Reads Counts per second (read 3) (recombinant NLuc): 345556 Counts per second; Reads Counts per second (read 4) (recombinant NLuc): 349383 Counts per second; Relative Recombinant NLUC (recombinant NLuc): 0.9221; PrestoBlue relative viability (HUH7 cells; human): 1.129; Mean relative luminescence (n=4) [1]: 0.1247; activity at 10 µM [3]: 7.16%; PrestoBlue relative viability (Vero cells; African green monkey): 1.172 |
| CCc1cnn2c(NCc3ccc[n+]([O-])c3)cc(N3CCCC[C@H]3CCO)nc12 [Dinaciclib (SCH727965), Dinaciclib] | 0.9134 | 345056 Counts per second | 346073 Counts per second | 342151 Counts per second | 0.5934 | 0.06294 | – | – | 5% | 3.29% | – | 0.03292 | 0.664 | 0.664 | – |
| Cc1cc(C2CCCCC2)n(O)c(=O)c1.NCCO [Ciclopirox ethanolamine] | 0.961 | 358391 Counts per second | 361119 Counts per second | 365653 Counts per second | 0.5023 | 0.04601 | – | – | 7% | – | – | 0.05436 | 0.5173 | 0.5173 | Mean relative luminescence (n=4) [3, 10]: 0.05436 |
